Results from patent US9221795B2, “Phosphatidylinositol 3-kinase inhibitors” (Gilead Sciences, Inc., priority 2013, dated 2015).

Assays:
basophils = assay: Basophil activation in human whole blood (Flow2 CAST kit, CD63 flow cytometry); format: cell-based; settings: human whole blood, basophils activated with anti-FcεRI mAb or fMLP, percent CD63 positive cells
Method: Effect on basophil activation was measured in human whole blood using the Flow2 CAST® kit (Buhlmann Laboratories AG, Baselstrasse, Switzerland) following the protocol provided by the manufacturer with minor modifications. Human whole blood was collected into K2-EDTA venipuncture tubes. Whole blood samples were treated with either DMSO (0.3% final) or a serial dilution of compounds in DMSO for 60 minutes at 37° C. Basophils were then activated either with anti-FcεRI mAb or with fMLP. To activate basophils using the anti-FcεRI mAb; 50 μL of whole blood was mixed with 110 μL of stimulation buffer (B-BAT-STB) and 20 μl of anti-FcεRI (B-BAT-STCON). To activate basophils with fMLP; 50 μL of whole blood was mixed with 80 μL of stimulation buffer (B-BAT-STB) and 50 μL of fMLP (B-CCR-FMLP). Stimulation buffer was used as a negative control. 20 μL of the staining reagent (combination of anti-human CD63-FITC and anti-human CCR3-PE mAbs) was then added to each tube. The tubes were mixed gently and incubated for 25 minutes at 37° C. Subsequently, erythrocytes were lysed and fixed by the addition of 2 mL of lysing solution (B-BAT-LYR) for 10 minutes at room temperature. Cells were pelleted by centrifugation at 1200 rpm for 10 minutes at room temperature in a swing-out rotor. Supernatant was aspirated and cell pellet resuspended in 400 μL of wash buffer. Flow cytometric analysis of the basophil activation was performed on a FC500MPL flow cytometer (Beckman Coulter Inc., Fullerton, Calif.). CCR3-staining and side scatter were applied to gate at least 200 basophils that expressed a high density of CCR3. The percent CD63 positive cells within the gated basophil population were determined in different treatment groups and normalized to the vehicle control (0.3% DMSO) with anti-FcεRI mAb of fMLP stimulus as 100%. Final compound concentration was adjusted to correct for dilution effect of added reagents. The EC50 values were calculated from the analysis of the dose-response curves to a four-parameter equation.

PI3Kδ = PI3Kδ (Homo sapiens (Human), UniProt O00329); assay: Enzymatic activity of PI3K isoforms, TR-FRET assay (PI3Kδ); format: biochemical; settings: 2× Km ATP, geometric mean if more than one value
PI3Kδ, sequence (O00329 whole entry, the tested form may be a part, canonical isoform): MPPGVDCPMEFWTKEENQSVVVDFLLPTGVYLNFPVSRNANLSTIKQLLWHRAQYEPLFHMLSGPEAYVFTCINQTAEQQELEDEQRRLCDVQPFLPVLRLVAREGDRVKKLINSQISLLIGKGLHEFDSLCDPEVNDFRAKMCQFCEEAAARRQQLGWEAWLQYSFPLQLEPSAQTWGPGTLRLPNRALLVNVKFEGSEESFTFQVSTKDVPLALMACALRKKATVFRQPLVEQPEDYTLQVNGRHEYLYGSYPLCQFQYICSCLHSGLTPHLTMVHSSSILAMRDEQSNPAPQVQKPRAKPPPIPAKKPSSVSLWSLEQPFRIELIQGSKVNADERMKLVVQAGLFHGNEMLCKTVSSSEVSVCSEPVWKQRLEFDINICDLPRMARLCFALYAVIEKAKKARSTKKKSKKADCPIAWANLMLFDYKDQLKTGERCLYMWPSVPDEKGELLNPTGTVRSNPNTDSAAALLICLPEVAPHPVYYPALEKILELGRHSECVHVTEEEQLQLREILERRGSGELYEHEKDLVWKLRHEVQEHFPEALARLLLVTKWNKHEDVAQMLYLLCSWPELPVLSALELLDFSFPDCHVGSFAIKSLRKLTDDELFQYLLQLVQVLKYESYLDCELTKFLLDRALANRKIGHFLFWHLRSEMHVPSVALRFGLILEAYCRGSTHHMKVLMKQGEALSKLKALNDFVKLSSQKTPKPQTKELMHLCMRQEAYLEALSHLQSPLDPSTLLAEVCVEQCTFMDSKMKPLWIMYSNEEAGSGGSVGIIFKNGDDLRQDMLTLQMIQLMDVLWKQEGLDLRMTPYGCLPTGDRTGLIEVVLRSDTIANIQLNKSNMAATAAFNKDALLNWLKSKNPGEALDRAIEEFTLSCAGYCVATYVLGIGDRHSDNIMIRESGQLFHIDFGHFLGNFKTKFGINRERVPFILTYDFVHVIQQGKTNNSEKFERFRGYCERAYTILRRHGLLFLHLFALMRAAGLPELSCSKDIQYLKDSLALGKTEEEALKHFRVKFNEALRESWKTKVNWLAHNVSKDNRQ
PI3Kδ, sequence (P27986 whole entry partner, the tested form may be a part, canonical isoform): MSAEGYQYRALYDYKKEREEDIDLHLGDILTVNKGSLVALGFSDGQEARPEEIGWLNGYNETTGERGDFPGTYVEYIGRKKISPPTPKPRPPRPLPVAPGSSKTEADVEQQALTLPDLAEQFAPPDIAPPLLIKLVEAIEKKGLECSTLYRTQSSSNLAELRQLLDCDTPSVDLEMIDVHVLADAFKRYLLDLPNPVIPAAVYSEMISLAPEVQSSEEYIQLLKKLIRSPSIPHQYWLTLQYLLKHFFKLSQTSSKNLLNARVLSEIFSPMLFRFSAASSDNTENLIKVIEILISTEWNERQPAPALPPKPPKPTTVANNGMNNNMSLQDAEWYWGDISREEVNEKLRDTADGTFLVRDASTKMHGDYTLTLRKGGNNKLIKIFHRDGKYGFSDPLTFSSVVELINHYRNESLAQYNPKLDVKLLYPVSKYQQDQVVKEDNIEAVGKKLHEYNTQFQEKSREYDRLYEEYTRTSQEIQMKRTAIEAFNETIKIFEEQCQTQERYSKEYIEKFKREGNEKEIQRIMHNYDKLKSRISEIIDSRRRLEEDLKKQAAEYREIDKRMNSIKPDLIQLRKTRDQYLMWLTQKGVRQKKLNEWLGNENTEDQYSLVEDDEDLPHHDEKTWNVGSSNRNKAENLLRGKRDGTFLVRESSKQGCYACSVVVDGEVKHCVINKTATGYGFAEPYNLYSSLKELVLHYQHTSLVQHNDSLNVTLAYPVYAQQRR
Method: Enzymatic activity of the class I PI3K isoforms in the presence of the compounds of Table 1 and Compounds X, Y and Z was measured using a time-resolved fluorescence resonance energy transfer (TR-FRET) assay. The TR-FRET assay was used to monitor formation of the product 3,4,5-inositol triphosphate molecule (PIP3) as it competed with fluorescently labeled PIP3 for binding to the GRP-1 pleckstrin homology domain protein. An increase in […] product results in a decrease in TR-FRET signal as the labeled fluorophore is displaced from the GRP-1 protein binding site.
Class I PI3K isoforms were expressed and purified as heterodimeric recombinant proteins. All assay reagents and buffers for the TR-FRET assay were purchased from Millipore. PI3K isoforms were assayed under initial rate conditions in the presence of 25 mM Hepes (pH 7.4), and 2× Km ATP (75-500 μM), 2 μM PIP2, 5% glycerol, 5 mM MgCl2, 50 mM NaCl, 0.05% (v/v) Chaps, 1 mM dithiothreitol, 1% (v/v) DMSO at the following concentrations for each isoforms: PI3Kα, PI3Kβ, and PI3Kδ between 25 and 50 pM, and PI3Kγ at 2 nM. After an assay reaction time of 30 minutes at 25° C., reactions were terminated with a final concentration of 10 mM EDTA, 10 nM labeled-PIP3, and 35 nM Europium labeled GRP-1 detector protein before reading TR-FRET on an Envision plate reader (Ex: 340 nm; Em: 615/665 nm; […] delay and 500 μs read window).
Data were normalized based on positive ([…] wortmanin) and negative (DMSO) controls. α, β, δ, and γ IC50 values were calculated from the fit of the dose-response curves to a four-parameter equation. All IC50 values represent geometric mean values if more than one value was obtained. IC50 values were reported in units of nM.

EC50 (basophils; Homo sapiens, class symbol)	EC50 (basophils; Homo sapiens, geometric mean)	IC50 (PI3Kδ)	EC50 (basophils; class symbol)	EC50 (basophils; geometric mean)	Compound
1 to 10 nM	5 nM	4 nM	–	–	Cc1cncc(-n2c([C@@H](Nc3nc(N)nc(N)c3C#N)C3CC3)nc3cccc(Cl)c3c2=O)c1 [Compound 17, (S)-2,4-diamino-6-((5-chloro-3-(5-methylpyridin-3-yl)-4-oxo-3,4-dihydroquinazolin-2-yl)(cyclopropyl)methylamino)pyrimidine-5-carbonitrile]
–	–	4 nM	1 to 10 nM	2 nM	Cc1ccncc1-n1c([C@H](C)Nc2nc(N)nc(N)c2C#N)nc2ccc(F)c(Cl)c2c1=O (atropisomer, axis not shown) [Compound 43, (S)-2,4-diamino-6-(1-(5-chloro-6-fluoro-3-(4-methylpyridin-3-yl)-4-oxo-3,4-dihydroquinazolin-2-yl)ethylamino)pyrimidine-5-carbonitrile]
> 50 nM	100 nM	9 nM	–	–	C[C@H](Nc1nc(N)nc(N)c1C#N)c1nc2cccc(S(C)(=O)=O)c2c(=O)n1-c1cccnc1 [Compound 8, (S)-2,4-diamino-6-(1-(5-(methylsulfonyl)-4-oxo-3-(pyridin-3-yl)-3,4-dihydroquinazolin-2-yl)ethylamino)pyrimidine-5-carbonitrile]
10 to 50 nM	22 nM	21 nM	–	–	C[C@H](Nc1nc(N)nc(N)c1C#N)c1nc2c(F)ccc(C#N)c2c(=O)n1-c1cccnc1 [Compound 34, (S)-2-(1-((2,6-diamino-5-cyanopyrimidin-4-yl)amino)ethyl)-8-fluoro-4-oxo-3-(pyridin-3-yl)-3,4-dihydroquinazoline-5-carbonitrile]
< 1 nM	0.3 nM	0.4 nM	–	–	Cc1cccc2nc([C@H](C)Nc3nc(N)nc(N)c3C#N)n(-c3cccnc3)c(=O)c12 [Compound 7, (S)-2,4-diamino-6-(1-(5-methyl-4-oxo-3-(pyridin-3-yl)-3,4-dihydroquinazolin-2-yl)ethylamino)pyrimidine-5-carbonitrile]
1 to 10 nM	–	27 nM	–	8 nM	Cc1ccncc1-n1c([C@H](C)Nc2nc(N)nc(N)c2C#N)nc2ccc(F)c(Cl)c2c1=O (atropisomer, axis not shown) [Compound 42, (S)-2,4-diamino-6-(1-(5-chloro-6-fluoro-3-(4-methylpyridin-3-yl)-4-oxo-3,4-dihydroquinazolin-2-yl)ethylamino)pyrimidine-5-carbonitrile]
< 1 nM	0.7 nM	1 nM	–	–	Cc1cncc(-n2c([C@H](C)Nc3nc(N)nc(N)c3C#N)nc3cccc(Cl)c3c2=O)c1 [Compound 16, (S)-2,4-diamino-6-(1-(5-chloro-3-(5-methylpyridin-3-yl)-4-oxo-3,4-dihydroquinazolin-2-yl)ethylamino)pyrimidine-5-carbonitrile]
10 to 50 nM	17 nM	9 nM	–	–	C[C@H](Nc1nc(N)nc(N)c1C#N)c1nc2cccc(C#N)c2c(=O)n1-c1cccnc1 [Compound 10, (S)-2-(1-((2,6-diamino-5-cyanopyrimidin-4-yl)amino)ethyl)-4-oxo-3-(pyridin-3-yl)-3,4-dihydroquinazoline-5-carbonitrile]
1 to 10 nM	–	13 nM	–	9 nM	Cc1ncccc1-n1c([C@H](C)Nc2nc(N)nc(N)c2C#N)nc2cccc(Cl)c2c1=O (atropisomer, axis not shown) [Compound 38, (S)-2,4-diamino-6-(1-(5-chloro-3-(2-methylpyridin-3-yl)-4-oxo-3,4-dihydroquinazolin-2-yl)ethylamino)pyrimidine-5-carbonitrile]
10 to 50 nM	11 nM	8 nM	–	–	C[C@H](Nc1nc(N)nc(N)c1C#N)c1nc2c(F)ccc(F)c2c(=O)n1-c1cccnc1 [Compound 25, (S)-2,4-diamino-6-(1-(5,8-difluoro-4-oxo-3-(pyridin-3-yl)-3,4-dihydroquinazolin-2-yl)ethylamino)pyrimidine-5-carbonitrile]
–	–	1 nM	–	–	Cc1c(F)cncc1-n1c([C@H](C)Nc2nc(N)nc(N)c2C#N)nc2c(F)ccc(Cl)c2c1=O (atropisomer, axis not shown) [Compound 74, (S)-2,4-diamino-6-((1-(5-chloro-8-fluoro-3-(5-fluoro-4-methylpyridin-3-yl)-4-oxo-3,4-dihydroquinazolin-2-yl)ethyl)amino)pyrimidine-5-carbonitrile]
–	–	61 nM	–	–	C[C@@H](Nc1nc(N)nc(N)c1C#N)c1nc2c(F)ccc(Cl)c2c(=O)n1-c1cccnc1 [Compound 110, (R)-2,4-Diamino-6-((1-(5-chloro-8-fluoro-4-oxo-3-(pyridin-3-yl)-3,4-dihydroquinazolin-2-yl)ethyl)amino)pyrimidine-5-carbonitrile]
–	–	27 nM	–	–	Cc1ccncc1-n1c([C@H](C)Nc2nc(N)nc(N)c2C#N)nc2cccc(C(F)(F)F)c2c1=O (atropisomer, axis not shown) [Compound 80, (S)-2,4-Diamino-6-((1-(3-(4-methylpyridin-3-yl)-4-oxo-5-(trifluoromethyl)-3,4-dihydroquinazolin-2-yl)ethyl)amino)pyrimidine-5-carbonitrile]
–	–	42 nM	–	–	C[C@H](Nc1nc(N)nc(N)c1C#N)c1nc2c(F)ccc(C#N)c2c(=O)n1-c1cncc(F)c1 [Compound 62, (S)-2-(1-((2,6-diamino-5-cyanopyrimidin-4-yl)amino)ethyl)-8-fluoro-3-(5-fluoropyridin-3-yl)-4-oxo-3,4-dihydroquinazoline-5-carbonitrile]
–	–	380 nM	–	–	N#Cc1ccc(F)c2nc([C@@H](Nc3nc(N)nc(N)c3Cl)C3CC3)n(-c3cccnc3)c(=O)c12 [Compound 59, (S)-2-(cyclopropyl((2,6-diamino-5-chloropyrimidin-4-yl)amino)methyl)-8-fluoro-4-oxo-3-(pyridin-3-yl)-3,4-dihydroquinazoline-5-carbonitrile]
–	–	59 nM	–	–	Cc1c(F)cncc1-n1c([C@H](C)Nc2nc(N)nc(N)c2C#N)nc2c(F)ccc(Cl)c2c1=O (atropisomer, axis not shown) [Compound 73, (S)-2,4-diamino-6-((1-(5-chloro-8-fluoro-3-(5-fluoro-4-methylpyridin-3-yl)-4-oxo-3,4-dihydroquinazolin-2-yl)ethyl)amino)pyrimidine-5-carbonitrile]
–	–	0.8 nM	–	–	Cc1cncc(-n2c([C@H](C)Nc3nc(N)nc(N)c3C#N)nc3cccc(Cl)c3c2=O)c1C (atropisomer, axis not shown) [Compound 78, (S)-2,4-diamino-6-((1-(5-chloro-3-(4,5-dimethylpyridin-3-yl)-4-oxo-3,4-dihydroquinazolin-2-yl)ethyl)amino)pyrimidine-5-carbonitrile]
–	–	7 nM	–	–	N#Cc1c(N)nc(N)nc1N[C@@H](c1nc2c(F)ccc(Cl)c2c(=O)n1-c1cccnc1)C1CC1 [Compound 112, (R)-2,4-Diamino-6-(((5-chloro-8-fluoro-4-oxo-3-(pyridin-3-yl)-3,4-dihydroquinazolin-2-yl)(cyclopropyl)methyl)amino)pyrimidine-5-carbonitrile]

Compound	EC50 (basophils; Homo sapiens, class symbol)	EC50 (basophils; Homo sapiens, geometric mean)	IC50 (PI3Kδ)	EC50 (basophils; class symbol)	EC50 (basophils; geometric mean)
C[C@H](Nc1nc(N)nc(N)c1Cl)c1nc2cccc(F)c2c(=O)n1-c1cccnc1 [Compound 52, (S)-2-(1-((2,6-Diamino-5-chloropyrimidin-4-yl)amino)ethyl)-5-fluoro-3-(pyridin-3-yl)quinazolin-4(3H)-one]	–	–	63 nM	–	–
